The record followed here is PubChem BioAssay (NCI).

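Dose response: 5 concentrations. Exposure: 48 h. Format: 96-well plates. Endpoint: linear interpolation; highest concentration if not reached. Definition used: TGI = concentration required for complete inhibition of growth.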

What all share (assay): NCI anticancer screen, dose series, 48 h
Assay [1] concerns HOP-62 NSCLC.
Assay [2] has as its system A498 renal.
Assay [3] deals with HS 578T breast.
Assay [4] concerns OVCAR-3 ovarian.
Assay [5] relates to SK-MEL-2 melanoma.
The subject of assay [6] is BT-549 breast.
In assay [7] the test system is KM12 colon.
The subject of assay [8] is NCI/ADR-RES ovarian.
Assay [9] deals with NCI-H522 lung.
Assay [10] has as its system SK-MEL-5 melanoma.

In the case of `Cc1cnc2c(c1C)C(=O)c1ccccc1C2=O`, the TGI in assay [1], in [2], in assay [3], in [4], in [5] and in assay [6] was more than 100 µM throughout. The TGI in assay [7] is more than 100 µM; in [8], more than 100 µM; in [9], more than 100 µM; in assay [10] it was 28.9 µM.
`CCCc1[nH]c2ccccc2c1-c1c(CCC)[nH]c2ccccc12`: the TGI in assay [1] was 32.2 µM; in assay [2], more than 100 µM; in [3], 50.5 µM; in [4] it was 21.4 µM; in assay [5] it was 35.7 µM; in assay [6] it was 35.6 µM. In addition, the TGI in [7] is more than 61.2 µM; in assay [8] it was 51.8 µM; in assay [9] it was 34.2 µM; in [10] it was 23.7 µM.
As to `C=CCC1(C)CCCN(Cc2ccccc2)C1=O` (stereo not given), the TGI in assay [1] is more than 10 µM; in assay [2] it was 3.91 µM; in [3], more than 10 µM; in assay [4] it was more than 10 µM; in [5], more than 10 µM; in assay [6] it was more than 10 µM. Moreover, the TGI in [7] was more than 10 µM; in assay [8], more than 10 µM; in assay [9] it was more than 10 µM; in [10], 1.48 µM.
On to `CC(C)/C(Cl)=N/OC(=O)Nc1ccc(Cl)c(Cl)c1`, for which the TGI in assay [1] came to 33.1 µM; in assay [2] it was 33.5 µM; in [3], 54.5 µM; in assay [4], 6.4 µM; in assay [5], 34.1 µM; in assay [6], 9.62 µM. For the same molecule, the TGI in assay [7] came out at 32.6 µM; in [8], 32 µM; in [9], 3.25 µM; in assay [10], 27.3 µM.
As to `CN(CCCNC(=O)c1cc(-c2ccccc2)nc2ccccc12)CCCNC(=O)c1cc(-c2ccccc2)nc2ccccc12`, the TGI in assay [1] amounted to 4.13 µM; in assay [2], 10.1 µM; in [3], 16 µM; in [4], 9.14 µM; in assay [5], 3.67 µM; in [6], 26.8 µM. Besides, the TGI in assay [7] is 4.75 µM; in assay [8], 11.1 µM; in assay [9], 3.51 µM; in assay [10], 3.08 µM.
Turning to `Cc1cc2c(cc1C)[n+](=O)c(C(=O)c1ccccc1)c(C(F)(F)F)n2[O-]`, the TGI in assay [1] was 2.34 µM; in assay [2] it was 13.6 µM; in [3], 15.1 µM; in assay [4], 3.8 µM; in assay [5] it was 19.7 µM; in assay [6], 23.9 µM. For the same molecule, the TGI is 5.1 µM in [7], more than 26.2 µM in assay [8], 12.9 µM in assay [9] and 3.75 µM in [10].
Take `COc1ccc(CNc2cc(=O)n(C)c(=O)[nH]2)cc1`: the TGI in assay [1], in assay [2], in assay [3], in assay [4], in assay [5] and in assay [6] was more than 100 µM each time. The TGI in assay [7], in assay [8], in [9] and in assay [10] was more than 100 µM each time.
In the case of `CCCCNc1nc(NC2OCC(OC(C)=O)C(OC(C)=O)C2OC(C)=O)c(N=O)c(=O)n1C` (stereo not given), the TGI in assay [1], in assay [2], in assay [3], in assay [4], in assay [5] and in assay [6] was more than 10 µM throughout. The TGI in assay [7], in assay [8], in [9] and in assay [10] was more than 10 µM each time.
As to `O=[N+]([O-])c1ccc(C(O)(C#CCN2CCCC2)c2ccccc2)cc1` (stereo not given), the TGI in assay [1] is more than 100 µM; in assay [2], 76.6 µM; in assay [3], 95.7 µM; in assay [4], more than 100 µM; in assay [5], 75.5 µM; in assay [6], more than 100 µM. Also, the TGI in assay [7] is more than 100 µM; in [8] it was more than 100 µM; in assay [9], 54.9 µM; in assay [10] it was 42.6 µM.
`COC(=O)C(Cc1c[nH]c2ccccc12)N=C1Nc2ccncc2S(=O)(=O)N1c1cccc(OC(C)C)c1` (stereo not given): the TGI in assay [1], in assay [2], in [3], in assay [4], in assay [5] and in assay [6] was more than 100 µM throughout. In addition, the TGI in assay [7], in assay [8], in assay [9] and in assay [10] was more than 100 µM throughout.
For the molecule `O=C1c2c(Br)sc(Br)c2[C@@H](NC(=O)C(F)(F)F)C1Br` (stereo not given in full), the TGI is 28.2 µM in assay [1]; 28.7 µM in assay [2]; more than 63.9 µM in assay [3]; 9.99 µM in [4]; 27.5 µM in [5]; 10.1 µM in assay [6]. In addition, the TGI in assay [7] worked out at 17.7 µM; in assay [8], 11 µM; in assay [9], 5.07 µM; in [10], 7.88 µM.
Regarding `CN1CCN(c2ccc3c(c2)NCC(=O)N3)CC1`, the TGI in assay [1], in assay [2], in [3], in assay [4], in assay [5] and in assay [6] was more than 100 µM each time. Moreover, the TGI in [7], in [8], in [9] and in [10] was more than 100 µM throughout.
For `Clc1ccc(C2ON=C(c3ccccc3)N2C23CC4CC(CC(C4)C2)C3)cc1` (stereo not given), the TGI in assay [1], in assay [2], in assay [3], in assay [4], in assay [5] and in assay [6] was more than 10 µM in each case. Besides, the TGI in [7], in assay [8], in assay [9] and in [10] was more than 10 µM each time.
